Laboratory results as given in patent US7067533B2, “Aminophenoxyacetamide derivatives and pharmaceutical composition containing thereof” (Daiichi Asubio Pharma Co., Ltd., priority 2000, dated 2006).

Tests used:
[1] = test system: primary cultures (neurons) from cerebral cortices of fetal Wistar rats; test: Biological Test 2: antagonism of the neuroprotective effect by MTA treatment (MTT); assay type: cell-based, rat; conditions: 0.75 mM MTA added 30 minutes before test compound, glutamate
Description: This biological test is performed to determine whether the neuroprotective effect of the test compounds is due to the activation of receptors of physiological active substances or not, by using antagonistic test for neutralizing antibody and Inhibitor for FGF, NT-3, NT-4/5, BDNF, IGF-I/II, NGF, PDGF and estrogen, respectively.
Chem., 268, 4244 (1993)]. Therefore, the neuroprotective effect of the test compounds is inhibited by treatment of MTA, this effect is depended by the signal transfer effect through the phosphorylation of FGF receptor.
The inhibitors of the various kinds of receptor were dissolved in the optimum concentration, and MTA was dissolved in the concentration of 7.5 mM, just before the using. 30 minutes before the treatment of the test compounds, the optimum concentration of each inhibitors or 0.75 mM of MTA was added, and the neuroprotective effect of the test compounds was determined by mean of MTT method.

[2] = test system: cerebral edema (water content of cerebral hemisphere), Wistar rats; test: Biological Test 5: cerebral edema suppressing effect; assay type: in vivo; conditions: iv, 144 h, rat, post-TBI day 6, read-out: Cerebral edema suppressing rate (%); for inhibition in vivo at 3 mg/kg: 3 mg/kg intravenously just after the operation; for inhibition in vivo at 1 mg/kg: 1 mg/kg intravenously just after the operation
Description: Adult male Wistar rats weighing 210–230 g were used in the present study and housed in an artificially controlled environment with 12-hour light/dark cycle. Animals were anesthetized with pentobarbital sodium (50 mg/kg of body weight, i.p., Nembutal, Dinabbott, Japan) and placed in a stereotaxic apparatus. The skull was exposed and a hole was made on the parietal bone; 1.5 mm posterior and 0.8 mm lateral to the bregma. All procedures were performed under a surgery microscope to avoid excess irritation to the meninges and the underlying brain. A brass screw with a blunt tip (1.0 mm in diameter and 3.0 mm in length, Biomedica, Japan) was inset in the hole. The screw tip protruding intracranially was approximately 2.5 mm, which stuck into the parietal part of the right cerebrum through the meninges. In sham-operated rats, scalp was closed without attaching a screw to the hole. After surgery, all rats were kept in their original dens until sacrifice. Rats were allowed to feed chow and water ad libitum.
Under anesthesia the rat cerebral hemispheres of the target were processed for water content on post-TBI day 6 (n=6). The cerebral hemispheres dissected out were weighed, dried for 24 hours at 110 degree (Celsius) and then weighed again. The subtracted amount of the wet and dry weights was regarded as tissue water of the target, and utilized for the analysis of the cerebral edema.
The water content was calculated by using the following formula:
Water content (%) =[(wet weight of hemisphere—dry weight of hemisphere)/wet weight of hemisphere]×100
The test compounds were intravenously administered just after the operation via tail vein of the rats.

[3] = test system: primary cultures (neurons) from cerebral cortices of fetal Wistar rats; test: Biological Test 1: neuroprotective effect against glutamate induced neuronal cell death (MTT); assay type: cell-based, rat; conditions: Compound: 1 μM; glutamate 1 mM; control group = 100%
Description: Cultures were maintained at 37 C. in a 90% air/10% CO2 humidified incubator. Glutamate was added to the culture at day 4 to the final concentration of 1 mM. […] MTT was dissolved in phosphate buffered saline (PBS, pH 7.4) at 5 mg/ml and filtered to sterilize and remove a small amount of insoluble residue present in some batches of MTT, and added to the cultures at a final concentration of 0.5 mg/ml.
The test compounds (1 μM) was added 24 hrs prior to glutamate treatment and simultaneously with glutamate.
Survival rate of living cells (%) =[(test compound group—glutamic acid treated group)÷(control group—glutamic acid treated group)]×100

CalbindinD-28k = test: Biological Test 3: CalbindinD-28k inducing effect (western blot); assay type: cell-based, rat; conditions: control (none-treated) = 100
Description: Test compounds were added 5 days after initiation of the incubation, and after 7 days of incubation, the protein was extracted with homogenized buffer solution [containing 20 mm of Tris-HCl (pH=7.4), 1 mM of EDTA, and 0.1 mM of phenylmethyl-sulfonyl fluoride].
In the table, the amount of induced CalbindinD-28k of the control group (none-treated group) was 4indicated as 100 percents.

[4] = test system: primary cultures (neurons) from cerebral cortices of fetal Wistar rats; test: Biological Test 4: neuroprotective inhibiting effect by calbindin antisense oligonucleotide (MTT); assay type: cell-based, rat; conditions: 300 μM glutamic acid

SMILES | Survival Rate (%) (Compound: 1 μl & MTA treatment) [1] | inhibition in vivo at 3 mg/kg [2] | Survival Rate (%) (Compound: 1 μl) [3] | inhibition in vivo at 1 mg/kg [2] | Amount of induced CalbindineD-28k (% vs. control) (Compound: 1 μM) (CalbindinD-28k) | Survival Rate (%) [antisense (+): 5 μM] ([4]; 0.1 μM) | Survival Rate (%) [antisense (−)] ([4]; 0.1 μM) | Survival Rate (%) [antisense (+): 5 μM] ([4]; 1 μM) | Survival Rate (%) [antisense (−)] ([4]; 1 μM)
Cc1c(C)c(OCC(=O)N(C)C2CCN(CC3CC3)CC2)c(C)c(C)c1N [Compound 12, 2-(4-Amino-2,3,5,6-tetramethylphenoxy)-N-(1-cyclo-propylmethyl-4-piperidinyl)-N-methylacetamide] | 33% | 14.7% | 54% | – | – | – | – | – | –
Cc1c(C)c(OCC(=O)N(C)C2CCN(C[C@@H]3C[C@H]3c3ccccc3)CC2)c(C)c(C)c1N (relative stereo) [Compound 13, 2-(4-Amino-2,3,5,6-tetramethylphenoxy)-N-methyl-N-[1-(trans-2-phenyl-1-cyclopropylmethyl)-4-piperidinyl]acetamide] | 13% | 13.1% | 65% | – | – | – | – | – | –
Cc1c(C)c(OC(C)C(=O)N(C)C2CCN(CCN3CCOCC3)CC2)c(C)c(C)c1N (centres unmarked) [Compound 25, 2-(4-Amino-2,3,5,6-tetramethylphenoxy)-N-methy-N-{1-[2-(4-morpholinyl)ethyl]-4-piperidinyl}proanamide] | 16% | – | 87% | 19.1% | – | – | – | – | –
Cc1c(C)c(OCC(=O)N(C)C2CCN(CCc3ccccc3)CC2)c(C)c(C)c1N [Compound 6, 2-(4-Amino-2,3,5,6-tetramethylphenoxy)-N-methyl-N-(1-phenethyl-4-piperidinyl)acetamide] | 25% | 24.9% | 54% | – | 163 % vs. control | 30% | 103% | 34% | 108%
Cc1c(C)c(OCC(=O)N(C)C2CCN(C(=O)c3ccccc3)CC2)c(C)c(C)c1N [Compound 8, 2-(4-Amino-2,3,5,6-tetramethylphenoxy)-N-(1-benzoyl-4-piperidinyl)-N-methylacetamide] | 24% | – | 78% | 14% | – | – | – | – | –
